Experiments:
[1] = target: T1, c-Met (cytoplasmic domain) (Homo sapiens, UniProt P08581); experiment: c-Met Kinase Assay (same methods as for ALK, with modifications); assay type: biochemical; settings: c-Met kinase inhibition, 1 μM ATP; read-out: cMet Activity
T1 construct: 10 ng/mL c-Met (cytoplasmic domain, Invitrogen Corporation #PV3143); purchased Invitrogen Corporation PV3143
In short: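 Europium-labeled PT66 antibody (Eu-N1) detects substrate phosphorylation on wells coated with phospholipase C-γ at 10 μg/mL. The kinase, the cytoplasmic domain of c-Met at 10 ng/mL, starts the reaction, which proceeds 15 minutes at 37° C.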

[2] = target: T2, baculovirus-expressed ALK (Homo sapiens, UniProt Q9UM73); experiment: ALK Kinase Assay (ELISA-type, time-resolved fluorescence); assay type: biochemical; settings: ALK kinase inhibition, 1 μM ATP; read-out: ALK Activity
T2 construct: host or cells: baculovirus expression system
T2 sequence (Q9UM73 19-1620): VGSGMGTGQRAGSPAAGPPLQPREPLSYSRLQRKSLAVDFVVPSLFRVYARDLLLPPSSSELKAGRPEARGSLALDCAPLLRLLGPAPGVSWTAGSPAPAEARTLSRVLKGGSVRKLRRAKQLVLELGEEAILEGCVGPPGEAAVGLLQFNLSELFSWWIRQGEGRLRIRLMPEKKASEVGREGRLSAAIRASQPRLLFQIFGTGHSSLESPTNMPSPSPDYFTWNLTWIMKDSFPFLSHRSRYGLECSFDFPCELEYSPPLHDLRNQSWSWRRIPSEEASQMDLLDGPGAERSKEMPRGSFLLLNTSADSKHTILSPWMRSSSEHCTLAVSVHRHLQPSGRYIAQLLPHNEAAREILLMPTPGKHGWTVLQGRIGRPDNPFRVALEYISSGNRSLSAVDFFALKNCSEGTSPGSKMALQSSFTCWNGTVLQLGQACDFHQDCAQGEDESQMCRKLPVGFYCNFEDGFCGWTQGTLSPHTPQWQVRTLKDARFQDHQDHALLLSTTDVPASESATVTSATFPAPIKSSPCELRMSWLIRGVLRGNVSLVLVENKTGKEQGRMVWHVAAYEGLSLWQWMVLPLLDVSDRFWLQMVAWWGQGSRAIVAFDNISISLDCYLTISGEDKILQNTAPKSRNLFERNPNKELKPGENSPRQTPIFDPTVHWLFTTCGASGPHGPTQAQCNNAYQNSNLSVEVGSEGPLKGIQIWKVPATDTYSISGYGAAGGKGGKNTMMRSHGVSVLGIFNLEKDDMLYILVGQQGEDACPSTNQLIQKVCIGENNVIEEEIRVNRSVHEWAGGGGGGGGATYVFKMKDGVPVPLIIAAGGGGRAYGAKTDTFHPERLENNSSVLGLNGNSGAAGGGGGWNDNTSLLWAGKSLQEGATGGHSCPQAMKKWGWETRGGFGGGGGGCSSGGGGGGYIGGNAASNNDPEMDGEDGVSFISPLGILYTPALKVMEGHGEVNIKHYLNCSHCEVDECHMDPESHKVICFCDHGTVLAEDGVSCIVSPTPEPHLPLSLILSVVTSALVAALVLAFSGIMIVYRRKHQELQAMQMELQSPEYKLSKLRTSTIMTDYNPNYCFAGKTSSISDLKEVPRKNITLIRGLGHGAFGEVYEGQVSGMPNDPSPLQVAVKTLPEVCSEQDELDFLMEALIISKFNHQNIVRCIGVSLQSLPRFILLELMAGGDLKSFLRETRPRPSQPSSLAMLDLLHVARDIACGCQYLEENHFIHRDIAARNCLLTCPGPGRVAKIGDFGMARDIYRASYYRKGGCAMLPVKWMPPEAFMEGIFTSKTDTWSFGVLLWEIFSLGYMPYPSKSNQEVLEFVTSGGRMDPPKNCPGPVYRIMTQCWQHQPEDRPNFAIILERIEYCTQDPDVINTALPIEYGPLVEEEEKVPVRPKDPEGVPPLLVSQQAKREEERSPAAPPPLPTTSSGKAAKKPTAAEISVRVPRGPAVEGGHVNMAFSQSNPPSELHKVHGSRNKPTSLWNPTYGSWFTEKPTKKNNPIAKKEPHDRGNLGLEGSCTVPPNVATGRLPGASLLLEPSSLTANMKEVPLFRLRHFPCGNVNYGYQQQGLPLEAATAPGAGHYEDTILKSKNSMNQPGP
In short: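 Plates coated with phospholipase C-γ substrate (10 μg/mL in TBS); reaction started with 30 ng/ml ALK and run 15 min at 37° C. Phosphorylated substrate detected with Eu-N1-labeled PT66 antibody. IC50 from sigmoidal variable-slope fit of percent inhibition vs log concentration.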

T1 sequence (P08581 956-1390 limits assumed): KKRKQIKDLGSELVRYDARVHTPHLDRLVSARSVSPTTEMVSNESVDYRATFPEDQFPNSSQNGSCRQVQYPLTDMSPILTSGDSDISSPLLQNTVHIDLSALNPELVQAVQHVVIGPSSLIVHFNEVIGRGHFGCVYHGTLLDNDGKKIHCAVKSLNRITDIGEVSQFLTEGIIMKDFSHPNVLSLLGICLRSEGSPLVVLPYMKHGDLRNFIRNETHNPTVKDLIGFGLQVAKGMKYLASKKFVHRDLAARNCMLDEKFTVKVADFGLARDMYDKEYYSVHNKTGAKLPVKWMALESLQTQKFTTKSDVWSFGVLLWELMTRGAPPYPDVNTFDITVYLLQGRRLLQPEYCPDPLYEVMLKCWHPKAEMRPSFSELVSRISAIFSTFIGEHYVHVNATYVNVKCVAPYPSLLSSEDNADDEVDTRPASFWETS

For `COc1cc2c(cc1Nc1ncc(Cl)c(N[C@H]3[C@@H](C(N)=O)[C@@H]4C=C[C@H]3C4)n1)CCN(CCN1CCOCC1)CC2` [Example 1529, (1S,2S,3R,4R)-3-{5-Chloro-2-[8-methoxy-3-(2-morpholin-4-yl-ethyl)-2,3,4,5-tetrahydro-1H-3-benzazepin-7-ylamino]-pyrimidin-4-ylamino}-bicyclo[2.2.1]hept-5-ene-2-carboxylic acid amide], which IC50 [1] is on record?
Its IC50 is over 10000 nM.

What about the IC50 [2] of the same compound?
Its IC50 is under 100 nM.

How did the IC50 [1] turn out when `COc1cc2c(cc1Nc1ncc(Cl)c(Nc3ccccc3S(=O)(=O)N(C)C)n1)CCN(CCO)CC2` [Example 1530, 2-{5-Chloro-2-[3-(2-hydroxy-ethyl)-8-methoxy-2,3,4,5-tetrahydro-1H-3-benzazepin-7-ylamino]-pyrimidin-4-ylamino}-N,N-dimethyl-benzenesulfonamide] was run?
Its IC50 is 1000 to 10000 nM.

And the IC50 [2]?
The IC50 was under 100 nM.

With `COc1cc2c(cc1Nc1ncc(Cl)c(N[C@@H]3CCCC[C@H]3NS(C)(=O)=O)n1)CCN(CCO)CC2` [Example 1531, N-((1R,2R)-2-{5-Chloro-2-[3-(2-hydroxy-ethyl)-8-methoxy-2,3,4,5-tetrahydro-1H-3-benzazepin-7-ylamino]-pyrimidin-4-ylamino}-cyclohexyl)-methanesulfonamide] as the compound, how does the IC50 [1] read?
Its IC50 is over 10000 nM.

What about the IC50 [2] of the same compound?
The IC50 was under 100 nM.

`COc1cc2c(cc1Nc1ncc(Cl)c(N[C@H]3[C@@H](C(N)=O)[C@@H]4C=C[C@H]3C4)n1)CCN(CCO)CC2` [Example 1532, (1S,2S,3R,4R)-3-{5-Chloro-2-[3-(2-hydroxy-ethyl)-8-methoxy-2,3,4,5-tetrahydro-1H-3-benzazepin-7-ylamino]-pyrimidin-4-ylamino}-bicyclo[2.2.1]hept-5-ene-2-carboxylic acid amide] was tested. Which IC50 [1] did it give?
Its IC50 is over 10000 nM.

What about the IC50 [2] of the same compound?
The IC50 was under 100 nM.

How did the IC50 [1] turn out when `COc1cc2c(cc1Nc1ncc(Cl)c(N[C@@H]3CCCC[C@H]3NS(C)(=O)=O)n1)CCN(CCN1CCOCC1)CC2` [Example 1533, N-((1R,2R)-2-{5-Chloro-2-[8-methoxy-3-(2-morpholin-4-yl-ethyl)-2,3,4,5-tetrahydro-1H-3-benzazepin-7-ylamino]-pyrimidin-4-ylamino}-cyclohexyl)-methanesulfonamide] was run?
Its IC50 is over 10000 nM.

And the IC50 [2]?
The IC50 was under 100 nM.

Which IC50 [1] does the source give for `COc1cc2c(cc1Nc1ncc(Cl)c(Nc3ccccc3S(=O)(=O)C(C)C)n1)CCN(CCN1CCOCC1)CC2` [Example 1534, 5-Chloro-N(2)-[8-methoxy-3-(2-morpholin-4-yl-ethyl)-2,3,4,5-tetrahydro-1H-3-benzazepin-7-yl]-N(4)-[2-(propane-2-sulfonyl)-phenyl]-pyrimidine-2,4-diamine] here?
The IC50 was over 10000 nM.

What about the IC50 [2] of the same compound?
Its IC50 is under 100 nM.

For `COc1cc2c(cc1Nc1ncc(Cl)c(Nc3ccccc3S(=O)(=O)C(C)C)n1)CCN(CC(=O)N1CCOCC1)CC2` [Example 1536, 2-(7-{5-Chloro-4-[2-(propane-2-sulfonyl)-phenylamino]-pyrimidin-2-ylamino}-8-methoxy-1,2,4,5-tetrahydro-3-benzazepin-3-yl)-1-morpholin-4-yl-ethanone], which IC50 [1] is on record?
The IC50 was over 10000 nM.

What about the IC50 [2] of the same compound?
The IC50 was under 100 nM.

Which IC50 [1] does the source give for `COc1cc2c(cc1Nc1ncc(Cl)c(Nc3ccc(N(C)C)cc3OC)n1)CCN(CCN1CCOCC1)CC2` [Example 1537, 5-Chloro-N(4)-(4-dimethylamino-2-methoxy-phenyl)-N(2)-[8-methoxy-3-(2-morpholin-4-yl-ethyl)-2,3,4,5-tetrahydro-1H-3-benzazepin-7-yl]-pyrimidine-2,4-diamine] here?
The IC50 was over 10000 nM.

What about the IC50 [2] of the same compound?
The IC50 was under 100 nM.

With `COc1cc2c(cc1Nc1ncc(Cl)c(Nc3ccccc3S(=O)(=O)N(C)C)n1)CCN(CC(=O)N1CCN(C)CC1)CC2` [Example 1538, 2-(5-Chloro-2-{8-methoxy-3-[2-(4-methyl-piperazin-1-yl)-2-oxo-ethyl]-2,3,4,5-tetrahydro-1H-3-benzazepin-7-ylamino}-pyrimidin-4-ylamino)-N,N-dimethyl-benzenesulfonamide] as the compound, how does the IC50 [1] read?
Its IC50 is 1000 to 10000 nM.

What about the IC50 [2] of the same compound?
The IC50 was under 100 nM.

`COc1cc2c(cc1Nc1ncc(Cl)c(N[C@H]3[C@@H](C(N)=O)[C@@H]4C=C[C@H]3C4)n1)CCN(CC(=O)N1CCN(C)CC1)CC2` [Example 1539, (1S,2S,3R,4R)-3-(5-Chloro-2-{8-methoxy-3-[2-(4-methyl-piperazin-1-yl)-2-oxo-ethyl]-2,3,4,5-tetrahydro-1H-3-benzazepin-7-ylamino}-pyrimidin-4-ylamino)-bicyclo[2.2.1]hept-5-ene-2-carboxylic acid amide] was tested. Which IC50 [1] did it give?
Its IC50 is over 10000 nM.

What about the IC50 [2] of the same compound?
The IC50 was under 100 nM.

What does the source list for `COc1cc2c(cc1Nc1ncc(Cl)c(Nc3ccc(N(C)C)cc3OC)n1)CCN(CC(=O)N1CCN(C)CC1)CC2` [Example 1540, 2-{7-[5-Chloro-4-(4-dimethylamino-2-methoxy-phenylamino)-pyrimidin-2-ylamino]-8-methoxy-1,2,4,5-tetrahydro-3-benzazepin-3-yl}-1-(4-methyl-piperazin-1-yl)-ethanone]?
IC50 [1]: > 10000 nM; IC50 [2]: < 100 nM

Which results are given for `COc1cc2c(cc1Nc1ncc(Cl)c(Nc3ccccc3S(=O)(=O)C(C)C)n1)CCN(CC(=O)N1CCN(C)CC1)CC2` [Example 1541, 2-(7-{5-Chloro-4-[2-(propane-2-sulfonyl)-phenylamino]-pyrimidin-2-ylamino}-8-methoxy-1,2,4,5-tetrahydro-3-benzazepin-3-yl)-1-(4-methyl-piperazin-1-yl)-ethanone]?
IC50 [1]: > 10000 nM; IC50 [2]: < 100 nM

`COc1cc2c(cc1Nc1ncc(Cl)c(Nc3ccccc3S(=O)(=O)N(C)C)n1)CCN(CCOC(=O)CN)CC2` [Example 1542, Amino-acetic acid 2-{7-[5-chloro-4-(2-dimethylsulfamoyl-phenylamino)-pyrimidin-2-ylamino]-8-methoxy-1,2,4,5-tetrahydro-benzo[d]azepin-3-yl}-ethyl ester] was tested. Which IC50 [1] did it give?
The IC50 was 1000 to 10000 nM.

What about the IC50 [2] of the same compound?
The IC50 was under 100 nM.

`COc1cc2c(cc1Nc1ncc(Cl)c(Nc3ccccc3S(=O)(=O)N3CCCC3)n1)CCN(CCO)CC2` [Example 1543, 2-(7-{5-Chloro-4-[2-(pyrrolidine-1-sulfonyl)-phenylamino]-pyrimidin-2-ylamino}-8-methoxy-1,2,4,5-tetrahydro-3-benzazepin-3-yl)-ethanol] was tested. Which IC50 [1] did it give?
The IC50 was 1000 to 10000 nM.

What about the IC50 [2] of the same compound?
Its IC50 is under 100 nM.

Which results are given for `COc1cc2c(cc1Nc1ncc(Cl)c(Nc3ccccc3S(=O)(=O)N(C)C)n1)CCN(CCOC(=O)[C@@H](N)C(C)C)CC2` [Example 1544, (S)-2-Amino-3-methyl-butyric acid 2-{7-[5-chloro-4-(2-dimethylsulfamoyl-phenylamino)-pyrimidin-2-ylamino]-8-methoxy-1,2,4,5-tetrahydro-3-benzazepin-3-yl}-ethyl ester]?
IC50 [1]: 1000 to 10000 nM; IC50 [2]: < 100 nM

Which IC50 [1] does the source give for `COc1cc2c(cc1Nc1ncc(Cl)c(Nc3ccccc3S(=O)(=O)N(C)C)n1)CCN(CCOP(=O)(O)O)CC2` [Example 1545, Phosphoric acid mono-(2-{7-[5-chloro-4-(2-dimethylsulfamoyl-phenylamino)-pyrimidin-2-ylamino]-8-methoxy-1,2,4,5-tetrahydro-3-benzazepin-3-yl}-ethyl)ester] here?
Its IC50 is 1000 to 10000 nM.

And the IC50 [2]?
The IC50 was under 100 nM.

Which results are given for `CCC(=O)OCCN1CCc2cc(Nc3ncc(Cl)c(Nc4ccccc4S(=O)(=O)N(C)C)n3)c(OC)cc2CC1` [Example 1546, Propionic acid 2-{7-[5-chloro-4-(2-dimethylsulfamoyl-phenylamino)-pyrimidin-2-ylamino]-8-methoxy-1,2,4,5-tetrahydro-3-benzazepin-3-yl}-ethyl ester]?
IC50 [1]: 1000 to 10000 nM; IC50 [2]: < 100 nM

From US8148391B2 (Cephalon, Inc., priority 2006, dated 2012)
